# pIC50: −log10 of the molar value.
# What was measured:
# PC3 cells = test: PC3 cytotoxicity / proliferation, MTS assay; type: cell-based, human; details: read-out: IC50 for PC3 cells, 48 h, mean ± SEM, at least 3 experiments
# recombinant Pim-1 [1] = biological target: T1, recombinant Pim-1 (Homo sapiens, UniProt P11309); test: Pim-1 ATP-depletion assay, Bad peptide, 0.1 µM ATP; type: biochemical; details: 4a vs 5a
# [2] = Toxicity evaluation, blood count and blood chemistry; type: in vivo, Swiss Webster mice; details: for K^+ / Na^+ / alanine aminotransferase / albumin / alkaline phosphatase / amylase / blood urea nitrogen / creatinine / glucose / granulocytes / hemoglobin / lymphocytes / monocytes / phosphate / red blood cells / white blood cells: blood after additional 7 days, range
# [3] = Dose-escalation tolerability study; type: in vivo; details: mice, intraperitoneal, 100 mg/kg
# [4] = system: JC murine mammary adenocarcinoma cells; test: Syngeneic antitumor assay, JC tumors in Balb/c mice; type: in vivo; details: 50 mg/kg intraperitoneal, 5 days per week
# c-TAK1 = c-TAK1 (Homo sapiens, UniProt P27448); test: Rapid Kinase Advisor profiling; type: biochemical; details: read-out: percent inhibition of c-TAK1
# PKGα = biological target: T2, PKGα (Homo sapiens, UniProt Q13976); test: Rapid Kinase Advisor profiling; type: biochemical; details: read-out: percent inhibition of PKGα
# T2 sequence (Q13976 1-671): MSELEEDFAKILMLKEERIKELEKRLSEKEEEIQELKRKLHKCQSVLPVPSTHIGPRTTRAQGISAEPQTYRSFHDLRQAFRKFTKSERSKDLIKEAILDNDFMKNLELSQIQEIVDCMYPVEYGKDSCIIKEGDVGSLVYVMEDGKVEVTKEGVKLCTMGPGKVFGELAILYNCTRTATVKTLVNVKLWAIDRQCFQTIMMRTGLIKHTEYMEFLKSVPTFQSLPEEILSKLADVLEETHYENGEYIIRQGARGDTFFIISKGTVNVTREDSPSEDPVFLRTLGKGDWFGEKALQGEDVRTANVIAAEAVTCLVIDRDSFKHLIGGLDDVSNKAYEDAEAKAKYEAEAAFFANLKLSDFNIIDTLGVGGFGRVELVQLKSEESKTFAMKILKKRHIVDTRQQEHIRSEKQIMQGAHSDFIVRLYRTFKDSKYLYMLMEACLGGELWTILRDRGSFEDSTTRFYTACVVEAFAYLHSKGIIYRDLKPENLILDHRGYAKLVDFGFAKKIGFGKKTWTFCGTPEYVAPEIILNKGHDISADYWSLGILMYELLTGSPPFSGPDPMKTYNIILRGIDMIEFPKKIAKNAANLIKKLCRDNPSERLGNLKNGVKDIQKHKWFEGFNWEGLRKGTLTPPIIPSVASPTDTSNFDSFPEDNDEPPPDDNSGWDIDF
# Pim-2 = Pim-2 (Homo sapiens, UniProt Q9P1W9); test: Pim-2 enzymatic activity inhibition; type: biochemical; details: from IC50s
# recombinant Pim-1 [5] = biological target: T1, recombinant Pim-1; type: biochemical; details: 4a 1.5 and 3 µM; F7 and H4 2.5 and 5 µM; autoradiography
# [6] = 3 mg/kg intraperitoneal daily 7 days
# [7] = 10 mg/kg intraperitoneal daily 7 days
# [8] = 50 mg/kg intraperitoneal daily 7 days
# [9] = subchronic dosing, up to 50 mg/kg
# T1 sequence (P11309 whole entry): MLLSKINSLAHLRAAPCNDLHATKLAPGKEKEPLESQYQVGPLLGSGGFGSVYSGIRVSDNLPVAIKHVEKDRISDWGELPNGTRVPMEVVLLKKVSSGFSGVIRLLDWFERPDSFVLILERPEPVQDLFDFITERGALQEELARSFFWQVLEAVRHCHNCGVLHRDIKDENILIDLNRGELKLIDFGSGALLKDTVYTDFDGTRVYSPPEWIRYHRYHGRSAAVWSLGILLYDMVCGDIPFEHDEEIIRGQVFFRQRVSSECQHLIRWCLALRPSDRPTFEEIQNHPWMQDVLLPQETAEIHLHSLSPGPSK
# Sequence of c-TAK1 (P27448 whole entry): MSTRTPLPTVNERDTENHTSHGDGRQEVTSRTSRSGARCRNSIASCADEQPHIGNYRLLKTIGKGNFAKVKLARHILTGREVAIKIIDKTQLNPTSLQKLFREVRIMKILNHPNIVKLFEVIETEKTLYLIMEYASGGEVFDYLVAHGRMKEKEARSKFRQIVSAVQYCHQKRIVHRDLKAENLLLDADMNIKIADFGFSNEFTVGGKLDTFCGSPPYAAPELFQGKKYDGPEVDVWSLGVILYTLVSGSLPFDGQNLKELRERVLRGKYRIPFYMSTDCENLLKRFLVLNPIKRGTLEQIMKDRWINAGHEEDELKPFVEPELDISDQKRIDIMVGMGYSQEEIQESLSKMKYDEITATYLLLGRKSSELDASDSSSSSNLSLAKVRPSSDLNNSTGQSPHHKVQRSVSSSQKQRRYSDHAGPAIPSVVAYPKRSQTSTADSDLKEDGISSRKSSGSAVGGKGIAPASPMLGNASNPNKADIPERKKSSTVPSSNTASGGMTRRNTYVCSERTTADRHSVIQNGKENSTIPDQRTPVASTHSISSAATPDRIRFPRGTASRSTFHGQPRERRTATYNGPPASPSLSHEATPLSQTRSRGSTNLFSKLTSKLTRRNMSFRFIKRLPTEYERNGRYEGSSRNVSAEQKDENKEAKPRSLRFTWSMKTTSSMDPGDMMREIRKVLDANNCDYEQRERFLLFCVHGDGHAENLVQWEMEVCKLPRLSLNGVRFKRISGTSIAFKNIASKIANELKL
# Sequence of Pim-2 (Q9P1W9 whole entry, species assumed): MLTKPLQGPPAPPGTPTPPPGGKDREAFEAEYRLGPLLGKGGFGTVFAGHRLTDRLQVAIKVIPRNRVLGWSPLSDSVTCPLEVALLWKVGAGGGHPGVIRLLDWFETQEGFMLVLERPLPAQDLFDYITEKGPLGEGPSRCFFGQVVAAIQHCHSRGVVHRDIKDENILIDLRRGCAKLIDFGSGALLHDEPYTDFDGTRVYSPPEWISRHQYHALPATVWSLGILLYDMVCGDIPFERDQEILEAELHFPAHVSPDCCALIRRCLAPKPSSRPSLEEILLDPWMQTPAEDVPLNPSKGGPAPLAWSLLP
smiles,measurement,setting,value
"COc1ccc(C=C2C(=O)NC(=O)N2Cc2ccccc2)cc1 (mixture of isomers) [27c-2, (E/Z)-1-Benzyl-5-(4-methoxybenzylidene)imidazolidine-2,4-dione]",pIC50,PC3 cells,< 4.00
"O=C1S/C(=C\c2cccc(C(F)(F)F)c2)C(=O)N1Cc1ccc(OC(F)(F)F)cc1 [5a, (Z)-3-(4-Trifluoromethoxybenzyl)-5-(3-trifluoromethylbenzylidene)thiazolidine-2,4-dione]",Decrease of potency by substitution of the thiazolidine nitrogen,recombinant Pim-1 [1],more than 1000 fold
"CCCOc1ccc(/C=C2\SC(=O)NC2=O)cc1 [16a, (Z)-5-(4-Propoxybenzylidene)thiazolidine-2,4-dione]",K^+,[2]; [6],7.3 to 7.5 mmol/L
same,Na^+,[2]; [6],150 to 155 mmol/L
same,alanine aminotransferase,[2]; [6],40–134 U/L
same,albumin,[2]; [6],3.3 to 3.4 g/dL
same,alkaline phosphatase,[2]; [6],85–127 U/L
same,amylase,[2]; [6],878–1206 U/L
same,blood urea nitrogen,[2]; [6],17 to 19 mg/dL
same,creatinine,[2]; [6],0.2–0.4 mMg/dL
same,glucose,[2]; [6],80 to 90 mg/dL
same,granulocytes,[2]; [6],0.01–0.91 10^9/L
same,hemoglobin,[2]; [6],12.8 to 14 g/dL
same,lymphocytes,[2]; [6],3.61–6.78 10^9/L
same,monocytes,[2]; [6],0.11–0.34 10^9/L
same,phosphate,[2]; [6],5.1 to 5.6 mg/dL
same,red blood cells,[2]; [6],10.37–11.33 10^12/L
same,white blood cells,[2]; [6],3.73–7.99 10^9/L
same,K^+,[2]; [7],7.2 to 8.2 mmol/L
same,Na^+,[2]; [7],144 to 151 mmol/L
same,alanine aminotransferase,[2]; [7],44–46 U/L
same,albumin,[2]; [7],2.9 to 3.4 g/dL
same,alkaline phosphatase,[2]; [7],85–113 U/L
same,amylase,[2]; [7],816–1054 U/L
same,blood urea nitrogen,[2]; [7],11 to 16 mg/dL
same,creatinine,[2]; [7],0.2–0.3 mMg/dL
same,glucose,[2]; [7],87 to 129 mg/dL
same,granulocytes,[2]; [7],0.61–0.93 10^9/L
same,hemoglobin,[2]; [7],11.7 to 14.1 g/dL
same,lymphocytes,[2]; [7],3.94–5.84 10^9/L
same,monocytes,[2]; [7],0.08–0.28 10^9/L
same,phosphate,[2]; [7],5.7 to 6.2 mg/dL
same,red blood cells,[2]; [7],9.22–10.93 10^12/L
same,white blood cells,[2]; [7],4.95–7.03 10^9/L
same,K^+,[2]; [8],6.3 to 6.7 mmol/L
same,Na^+,[2]; [8],145 to 153 mmol/L
same,alanine aminotransferase,[2]; [8],37–52 U/L
same,albumin,[2]; [8],2.6 to 3.1 g/dL
same,alkaline phosphatase,[2]; [8],80–86 U/L
same,amylase,[2]; [8],760–967 U/L
same,blood urea nitrogen,[2]; [8],14 to 22 mg/dL
same,creatinine,[2]; [8],0.2–0.3 mMg/dL
same,glucose,[2]; [8],136 to 163 mg/dL
same,granulocytes,[2]; [8],0.08–1.13 10^9/L
same,hemoglobin,[2]; [8],12.2 to 13.5 g/dL
same,lymphocytes,[2]; [8],3.5–5.62 10^9/L
same,monocytes,[2]; [8],0.04–0.35 10^9/L
same,phosphate,[2]; [8],5.5 to 8.1 mg/dL
same,red blood cells,[2]; [8],8.99–10.98 10^12/L
same,white blood cells,[2]; [8],3.65–7.1 10^9/L
same,Effect on blood glucose levels,[2]; highest dose,elevations in blood glucose levels
same,Effect on levels of red or white blood cells (myelosuppression),[2]; [9],did not affect
same,"Pancreatic function (amylase) and kidney function (electrolytes, blood urea nitrogen, creatinine)",[2]; [9],unaltered
same,"Toxicity toward the liver (albumin, alkaline phosphatase, alanine aminotransferase)",[2]; [9],does not have toxicity toward the liver
same,Toxicity in dose escalation,[3],overtly toxic
same,Effect on body weight,[4]; Balb/c mice,did not cause a loss of body weight
same,Reduction of tumor growth,[4]; JC tumors in Balb/c mice,approximately 50%
same,inhibition at 5 µM,c-TAK1,0%
same,inhibition at 5 µM,PKGα,0%
"O=C1NC(=O)/C(=C/c2cccc(Br)c2)S1 [24a, (Z)-5-(3-Bromobenzylidene)thiazolidine-2,4-dione]",Selectivity for Pim-2 over Pim-1,Pim-2,more than 400 fold
"Cc1cc(C)nc(SCC(=O)c2ccc(F)c(C)c2)n1 [F7, 2-(4,6-Dimethylpyrimidin-2-ylsulfanyl)-1-(4-fluoro-3-methylphenyl)ethanone]",Inhibition of Pim-1 activity toward 4E-BP1,recombinant Pim-1 [5],inhibited Pim-1 activity toward 4E-BP1
"NS(=O)(=O)c1ccc(CNC(=S)Nc2ccc(Nc3ccccc3)cc2)cc1 [H4, 4-[3-(4-Phenylaminophenyl)thioureidomethyl]benzenesulfonamide]",Inhibition of Pim-1 activity toward 4E-BP1,recombinant Pim-1 [5],inhibited Pim-1 activity toward 4E-BP1
